Experimental data as given in publication PMC6627779, “Experimental Approaches and Computational Modeling of Rat Serum Albumin and Its Interaction with Piperine” (International Journal of Molecular Sciences, 2019).

Target: T1, rat serum albumin (RSA) (Rattus norvegicus, UniProt P02770)
T1 construct: gene Alb
Test: Trp214 fluorescence quenching titration (steady-state, double-log Ka; IDF/Scatchard Kb […] ^−[…]), static mechanism confirmed by time-resolved fluorescence
Format: binding
Conditions: read-out: Ka (×10^4 M^-1) (converted)

T1 sequence (P02770 25-608): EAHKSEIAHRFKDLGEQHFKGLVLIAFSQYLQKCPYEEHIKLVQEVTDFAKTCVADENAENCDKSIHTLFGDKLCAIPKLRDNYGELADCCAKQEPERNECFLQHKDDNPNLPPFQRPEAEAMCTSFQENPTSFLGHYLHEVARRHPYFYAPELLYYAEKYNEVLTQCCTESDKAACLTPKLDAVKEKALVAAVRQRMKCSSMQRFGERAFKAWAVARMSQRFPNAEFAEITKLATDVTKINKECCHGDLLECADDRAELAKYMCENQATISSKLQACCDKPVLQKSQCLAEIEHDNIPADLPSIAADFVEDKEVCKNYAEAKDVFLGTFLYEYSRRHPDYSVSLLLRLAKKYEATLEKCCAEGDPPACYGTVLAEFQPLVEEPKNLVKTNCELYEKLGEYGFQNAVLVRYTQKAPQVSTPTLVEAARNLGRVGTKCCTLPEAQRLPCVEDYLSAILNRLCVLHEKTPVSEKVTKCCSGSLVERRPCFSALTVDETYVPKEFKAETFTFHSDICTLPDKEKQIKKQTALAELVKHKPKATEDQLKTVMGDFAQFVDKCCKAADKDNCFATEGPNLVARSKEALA

Question: `O=C(/C=C/C=C/c1ccc2c(c1)OCO2)N1CCCCC1` [piperine] was tested. Which Kd did it give?
Answer: 25.6 µM
